Six compounds from patent publication US20240409585A1, “MACROCYCLIC IMMUNOMODULATORS” (priority 2021, published 2024) can be followed below.

Bridge positions count the residues as written; N and C are the ends. Square brackets hold non-standard residues; d marks the D form. Peptide text beside a SMILES is read from it. * marks the point of attachment. Phe(4-CONH2) = NC(=O)c1ccc(C[C@H](N)C(=O)O)cc1; Bip = N[C@@H](Cc1ccc(-c2ccccc2)cc1)C(=O)O; NMeW = CN[C@@H](Cc1c[nH]c2ccccc12)C(=O)O; Phe(3-Me) = Cc1cccc(C[C@H](N)C(=O)O)c1; Val(3-OH) = CC(C)(O)[C@H](N)C(=O)O; 4Pal = N[C@@H](Cc1ccncc1)C(=O)O; Cha = N[C@@H](CC1CCCCC1)C(=O)O; Carboxymethyl = O=C(O)C*; NMeA = CN[C@@H](C)C(=O)O; Dab = NCC[C@H](N)C(=O)O; Nva = CCC[C@H](N)C(=O)O

The target of this assay is T1, PE-labeled human PD-L1-Ig binding to Jurkat cell line over-expressing human PD-1 (Jurkat-PD-1) (Homo sapiens, UniProt Q15116).
T1 construct: expressed in transfected cells; host or cells: Jurkat
T1 sequence (Q15116 25-288): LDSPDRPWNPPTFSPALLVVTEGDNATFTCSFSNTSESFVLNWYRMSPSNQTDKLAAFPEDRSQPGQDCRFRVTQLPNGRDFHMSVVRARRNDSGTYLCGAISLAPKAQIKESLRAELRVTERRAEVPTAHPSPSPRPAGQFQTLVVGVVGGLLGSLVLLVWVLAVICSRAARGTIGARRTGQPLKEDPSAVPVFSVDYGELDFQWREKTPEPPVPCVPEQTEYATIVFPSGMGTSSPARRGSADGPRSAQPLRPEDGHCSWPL
The assay can be described thus: Jurkat-PD-1 Cell Binding High-Content Screening Assay (CBA): Method 1. The note with it: Jurkat-hPD-1 cells, PE-labeled PD-L1-Ig 20 nM final; read-out: Jurkat HPDL1 PD1 IC50 (uM) (Method 1).
As for `CC(C)C[C@@H]1NC(=O)[C@H](Cc2c[nH]c3ccccc23)NC(=O)[C@H](CC(=O)O)NC(=O)[C@H](Cc2ccc(O)cc2)NC(=O)[C@H](Cc2ccccc2)NC(=O)CSC[C@@H](C(=O)N[C@@H](C)C(N)=O)NC(=O)[C@H](CO)NC(=O)[C@H](CCCCN)NC(=O)[C@H](CC(C)C)NC(=O)[C@H](CC(N)=O)NC(=O)[C@@H](CC(C)C)NC(=O)[C@H](C)N(C)C(=O)[C@H](C(C)C)NC(=O)[C@H](Cc2ccc(-c3ccccc3)cc2)NC1=O` [Compound 1536] ({CH2CO}-FYDWL[Bip]V[NMeA][dL]NLKSCA-NH2; thioether N-14), the IC50 came out at 0.01 µM.
Consider `CCC[C@@H]1NC(=O)[C@H](CCCNC(=N)N)NC(=O)[C@@H](CC(C)C)NC(=O)[C@H](C)N(C)C(=O)[C@H](CCCNC(=N)N)NC(=O)[C@H](Cc2ccc(-c3ccccc3)cc2)NC(=O)[C@H](C(C)C)NC(=O)[C@H](Cc2c[nH]c3ccccc23)NC(=O)[C@H](CC(=O)O)NC(=O)[C@H](Cc2ccc(O)cc2)NC(=O)[C@H](Cc2ccccc2)NC(=O)CSC[C@@H](C(=O)N[C@@H](C)C(N)=O)NC(=O)[C@H]([C@@H](C)O)NC(=O)[C@H](C(C)C)NC1=O` [Compound 1113] ({CH2CO}-FYDWV[Bip]R[NMeA][dL]R[Nva]VTCA-NH2; thioether N-14), for which the IC50 amounted to 0.14 µM.
Then `CC(C)C[C@@H]1NC(=O)[C@H](CCN)NC(=O)[C@@H](CC(C)C)NC(=O)[C@H](C)N(C)C(=O)[C@H](CCCNC(=N)N)NC(=O)[C@H](Cc2ccc(-c3ccccc3)cc2)NC(=O)[C@H](C(C)C)NC(=O)[C@H](Cc2c[nH]c3ccccc23)NC(=O)[C@H](CC(=O)O)NC(=O)[C@H](Cc2ccc(O)cc2)NC(=O)[C@H](CC(N)=O)NC(=O)CSC[C@@H](C(=O)N[C@@H](CCC(=O)O)C(N)=O)NC(=O)[C@H]([C@@H](C)O)NC(=O)[C@H](C(C)C)NC1=O` [Compound 1172] ({CH2CO}-NYDWV[Bip]R[NMeA][dL][Dab]LVTCE-NH2; thioether N-14), with 0.29 µM; and `CC[C@H](C)[C@@H]1NC(=O)[C@H](Cc2ccc(-c3ccccc3)cc2)NC(=O)[C@H](C(C)C)NC(=O)[C@H](Cc2c[nH]c3ccccc23)NC(=O)[C@H](CC(=O)O)NC(=O)[C@H](Cc2ccc(OCC(=O)O)cc2)NC(=O)[C@H](CC(N)=O)NC(=O)CSC[C@@H](C(=O)N[C@@H](C)C(N)=O)NC(=O)[C@H]([C@@H](C)O)NC(=O)[C@H](C(C)C)NC(=O)[C@H](CC(C)C)NC(=O)[C@H](CCN)NC(=O)[C@@H](CC(C)C)NC(=O)[C@H](C)N(C)C1=O` [Compound 1396] ({CH2CO}-NY(Carboxymethyl)DWV[Bip]I[NMeA][dL][Dab]LVTCA-NH2; thioether N-14), with 0.01 µM; and `CC(C)C[C@@H]1NC(=O)[C@H](CCN)NC(=O)[C@@H](CC(C)C)NC(=O)[C@H](Cc2c[nH]c3ccccc23)N(C)C(=O)[C@H](C(C)C)NC(=O)[C@H](Cc2ccc(-c3ccccc3)cc2)NC(=O)[C@H](C(C)C)NC(=O)[C@H](Cc2c[nH]c3ccccc23)NC(=O)[C@H](CC(=O)O)NC(=O)[C@H](Cc2ccc(O)cc2)NC(=O)[C@H](CC(N)=O)NC(=O)CSC[C@@H](C(=O)N[C@@H](C)C(N)=O)NC(=O)[C@H]([C@@H](C)O)NC(=O)[C@H](C(C)C)NC1=O` [Compound 1368] ({CH2CO}-NYDWV[Bip]V[NMeW][dL][Dab]LVTCA-NH2; thioether N-14), with 0.13 µM.
As for `Cc1cccc(C[C@@H]2NC(=O)[C@H](CC(=O)O)NC(=O)[C@H](Cc3ccc(C(N)=O)cc3)NC(=O)[C@H](Cc3ccncc3)NC(=O)CSC[C@@H](C(=O)N[C@@H](CCN)C(N)=O)NC(=O)[C@H](CO)NC(=O)[C@H](C(C)(C)O)NC(=O)[C@H](CC3CCCCC3)NC(=O)[C@H](CCN)NC(=O)[C@@H](CC(C)C)NC(=O)[C@H](C)N(C)C(=O)[C@H](Cc3ccc(OCC(=O)O)cc3)NC(=O)[C@H](Cc3ccc(-c4ccccc4)cc3)NC(=O)[C@H](Cc3ccc(OCC(=O)O)cc3)NC2=O)c1` [Compound 2138] ({CH2CO}-[4Pal][Phe(4-CONH2)]D[Phe(3-Me)]Y(Carboxymethyl)[Bip]Y(Carboxymethyl)[NMeA][dL][Dab][Cha][Val(3-OH)]SC[Dab]-NH2; thioether N-14), the IC50 is 0.03 µM.
